This assay concerns c-Jun phosphorylation (JNK activation) in CTL. Description: c-Jun phosphorylation in CTL during AICD (immunoblot). The assay is classed as cell-based, human. As to conditions: CTL re-stimulated with Mart-127-35 peptide after pre-incubation. As to the method: FIG. 1. […] (A) Effect of the JNK inhibitor SP600125 on AICD in the MART-127-35 epitope specific CTL. Histogram represents FACS analysis of the percent of MART-127-35 epitope specific CTLs that were tetramer positive and annexin negative after restimulation with MAGE-3271-279 control peptide (M3) pulsed T2 cells or MART-127-35 peptide (M1) pulsed T2 cells either alone or re-stimulated after pre-incubation with JNK inhibitor SP600125, p38-kinase inhibitor SB203580, ERK1/2 inhibitor PD98059 or caspase-inhibitor z-VAD-fink. MAGE-3271-279. (B) JNK activation results in phosphorylation of c-Jun during AICD in CTL that is blocked by SP600125. […] (i) Jurkat cells were treated with PMA+ionomycin in the absence or presence of SP600125 and JNK activation (c-Jun phosphorylation) was assessed with anti-phospho-c-Jun antibody. […] (ii) Jurkat cells were treated with Staurosporine for 1 and 4 hrs in the absence (S) or presence of caspase inhibitor, z-VAD-fmk (CI), JNK inhibitor, SP600125 (SP) or ERK1/2 inhibitor PD98059 (PD) and cleavage of PARP was detected by immunoblotting, using actin as a loading control. […] Percent annexin positive cells in all samples were quantified by FACS analysis and shown below the blot
Immunoblot analysis. […] Proteins bound to the resin were washed three times with RIPA buffer, re-suspended in sample buffer, and analyzed by SDS-PAGE and immunoblotting.
In general terms: A western blot detects proteins with antibodies after separation by electrophoresis.

Molecules are shown by their SMILES.

The results in this text go back to patent US20070003531A1, “Methods for improving immunotherapy by enhancing survival of antigen-specific cytotoxic T lymphocytes” (University of Connecticut, priority 2005, published 2007).

For the compound `O=C1c2ccccc2-c2n[nH]c3cccc1c23` [SP600125, anthra[1,9-cd]pyrazol-6(2H)-one], the “c-Jun activation (phosphorylation) in CTL during AICD” value is listed as “blocked”.
